In US8778966B2, “Quinolinone derivatives as PARP and tank inhibitors” (Janssen Pharmaceutica, NV, priority 2007, dated 2014):

biological target: T1, TANK-2 enzyme (Homo sapiens, UniProt Q9H2K2); assay: In vitro Scintillation Proximity Assay (SPA) for TANK-2 inhibitory activity; type: biochemical; details: not given
T1 construct: made in house
T1 sequence (Q9H2K2 1-1166): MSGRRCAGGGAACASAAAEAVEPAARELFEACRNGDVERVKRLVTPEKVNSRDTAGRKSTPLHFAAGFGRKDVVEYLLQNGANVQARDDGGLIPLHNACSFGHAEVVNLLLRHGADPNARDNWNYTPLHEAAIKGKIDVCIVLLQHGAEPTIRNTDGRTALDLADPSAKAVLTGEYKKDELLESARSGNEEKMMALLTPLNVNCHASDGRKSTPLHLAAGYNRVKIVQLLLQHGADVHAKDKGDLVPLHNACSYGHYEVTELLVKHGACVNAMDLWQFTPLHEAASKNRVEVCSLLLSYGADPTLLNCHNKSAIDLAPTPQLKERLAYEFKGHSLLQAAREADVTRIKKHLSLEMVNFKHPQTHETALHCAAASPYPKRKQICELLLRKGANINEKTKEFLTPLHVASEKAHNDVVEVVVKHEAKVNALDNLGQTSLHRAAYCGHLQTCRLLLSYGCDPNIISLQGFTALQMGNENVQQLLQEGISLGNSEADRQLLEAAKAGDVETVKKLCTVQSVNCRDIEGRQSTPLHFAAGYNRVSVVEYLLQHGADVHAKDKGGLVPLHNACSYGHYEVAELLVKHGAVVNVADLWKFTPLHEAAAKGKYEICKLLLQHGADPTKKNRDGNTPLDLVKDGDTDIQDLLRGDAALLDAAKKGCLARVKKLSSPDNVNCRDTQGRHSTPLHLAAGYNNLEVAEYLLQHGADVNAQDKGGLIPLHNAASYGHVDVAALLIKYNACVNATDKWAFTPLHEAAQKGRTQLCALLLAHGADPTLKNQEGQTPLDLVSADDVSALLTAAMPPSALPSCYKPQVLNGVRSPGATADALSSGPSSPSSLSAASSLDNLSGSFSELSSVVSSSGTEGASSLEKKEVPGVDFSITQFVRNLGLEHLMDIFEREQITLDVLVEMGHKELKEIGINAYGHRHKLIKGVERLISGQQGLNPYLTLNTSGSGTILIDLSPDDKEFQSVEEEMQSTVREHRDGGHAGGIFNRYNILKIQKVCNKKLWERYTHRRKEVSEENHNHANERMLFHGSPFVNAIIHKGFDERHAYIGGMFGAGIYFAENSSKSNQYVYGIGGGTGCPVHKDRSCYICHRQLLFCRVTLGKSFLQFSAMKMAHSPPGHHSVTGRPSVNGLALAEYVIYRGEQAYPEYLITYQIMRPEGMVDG
How it was run: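 Results are pIC50 values, with IC50 interpolated linearly around 50% of blank-subtracted control cpm. They come from a scintillation proximity read of TANK-2 (8 μg/ml) self-modification with [3H]-NAD+/NAD, incubated 120 min at room temperature in pH 7.4 Tris buffer containing MgCl2 and DTT. Compounds were first screened at 10^−5 M.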

in vitro SPA assay TANK-2 pIC50	Compound
7.1	CCc1cc2ccc(C(C)(C#N)Cc3cc(Cl)cc4c3OCOC4)cc2[nH]c1=O (stereo not drawn) [Compound 92]

same assay, conditions: read-out: in vitro SPA assay TANK-2 pIC50 (converted)

IC50	Compound
100 nM	CCc1cc2ccc(C(C)(C#N)Cc3ccc(OC)c(C#N)c3)cc2[nH]c1=O (stereo not drawn) [Compound 77]
158 nM	CCc1cc2ccc(C(C)(C#N)Cc3cc(C)ccc3C)cc2[nH]c1=O (stereo not drawn) [Compound 78]
79.4 nM	CCc1cc2ccc(C(C)(C#N)Cc3ccc(F)c(C)c3)cc2[nH]c1=O (stereo not drawn) [Compound 79]
126 nM	CCc1cc2ccc(C(C)(C#N)Cc3cc(Cl)ccc3OC)cc2[nH]c1=O (stereo not drawn) [Compound 80]
100 nM	CCc1cc2ccc(C(C)(C#N)Cc3cccc(Br)c3C)cc2[nH]c1=O (stereo not drawn) [Compound 81]
398 nM	CCc1cc2ccc(C(C)(C#N)Cc3ccc(Cl)c(C(F)(F)F)c3)cc2[nH]c1=O (stereo not drawn) [Compound 82]
79.4 nM	CCc1cc2ccc(C(C)(C#N)Cc3ccc(C)c(F)c3F)cc2[nH]c1=O (stereo not drawn) [Compound 83]
126 nM	CCc1cc2ccc(C(C)(C#N)Cc3c(C)cccc3C)cc2[nH]c1=O (stereo not drawn) [Compound 84]
100 nM	CCc1cc2ccc(C(C)(C#N)Cc3nc4ccccc4o3)cc2[nH]c1=O (stereo not drawn) [Compound 85]
158 nM	CCc1cc2ccc(C(C)(C#N)Cc3csc(C)n3)cc2[nH]c1=O (stereo not drawn) [Compound 86]
50.1 nM	CCc1cc2ccc(C(C)(C#N)Cc3ccc4nccnc4c3)cc2[nH]c1=O (stereo not drawn) [Compound 87]
200 nM	CCc1cc2ccc(C(C)(C#N)Cc3c(C)c(C)cc(C)c3C)cc2[nH]c1=O (stereo not drawn) [Compound 88]
316 nM	CCc1cc2ccc(C(C)(C#N)Cc3c(C)c(C)c(C)c(C)c3C)cc2[nH]c1=O (stereo not drawn) [Compound 89]
79.4 nM	CCc1cc2ccc(C(C)(C#N)Cc3cc(Cl)cc4c3OCOC4)cc2[nH]c1=O (stereo not drawn) [Compound 90]
398 nM	CCc1cc2ccc(C(C)(C#N)Cc3nncn3C)cc2[nH]c1=O (stereo not drawn) [Compound 93]
251 nM	CCc1cc2ccc(C(C)(C#N)Cc3cccc4nnn(C)c34)cc2[nH]c1=O (stereo not drawn) [Compound 94]
79.4 nM	CCc1cc2ccc(C(C)(C#N)Cc3nn(C)c4ccccc34)cc2[nH]c1=O (stereo not drawn) [Compound 95]
100 nM	CCc1cc2ccc(C(C)(C#N)Cc3cn4ccccc4n3)cc2[nH]c1=O (stereo not drawn) [Compound 96]
63.1 nM	CCc1cc2ccc(C(C)(C#N)Cc3cccnc3)cc2[nH]c1=O (stereo not drawn) [Compound 97]

The next lines start with the compound.

Compound	IC50
CCc1cc2ccc([C@](C)(C#N)Cc3ccccc3)cc2[nH]c1=O (single isomer, unassigned) [Compound 45]	25.1 nM
CCc1cc2ccc([C@@](C)(C#N)Cc3ccccc3)cc2[nH]c1=O (single isomer, unassigned) [Compound 46]	25.1 nM
CCc1cc2ccc(C(C)(C#N)CC3COc4ccccc4O3)cc2[nH]c1=O (single isomer, unassigned) [Compound 47]	316 nM
CCc1cc2ccc([C@](C)(C#N)Cc3nc(OC)cc(OC)n3)cc2[nH]c1=O (single isomer, unassigned) [Compound 52]	200 nM
CCc1cc2ccc([C@@](C)(C#N)Cc3nc(OC)cc(OC)n3)cc2[nH]c1=O (single isomer, unassigned) [Compound 53]	158 nM
CCc1cc2ccc(C(C)(C#N)Cc3cccc(C#C[Si](C)(C)C)c3)cc2[nH]c1=O (stereo not drawn) [Compound 1]	3980 nM
CCc1cc2ccc(C(C)(C#N)Cc3cccc(CN(C)C)c3)cc2[nH]c1=O (stereo not drawn) [Compound 7]	158 nM
CCc1cc2ccc(C(C)(C#N)Cc3cccc(COC)c3)cc2[nH]c1=O (stereo not drawn) [Compound 8]	79.4 nM
CCc1cc2ccc(C(C)(C#N)Cc3cccc(CO)c3)cc2[nH]c1=O (stereo not drawn) [Compound 9]	63.1 nM
CCc1cc2ccc(C(C#N)(Cc3ccccc3)CC3CC3)cc2[nH]c1=O (stereo not drawn) [Compound 28]	316 nM
CC(C#N)(Cc1ccccc1)c1ccc2cc(CO)c(=O)[nH]c2c1 (stereo not drawn) [Compound 40]	158 nM
CCc1cc2ccc(C(C)(C#N)Cc3c(F)ccc(C)c3F)cc2[nH]c1=O (stereo not drawn) [Compound 41]	79.4 nM
CCc1cc2ccc(C(C)(C#N)Cc3nnsc3Cl)cc2[nH]c1=O (stereo not drawn) [Compound 42]	79.4 nM
CCc1cc2ccc(C(C)(C#N)Cc3nc(OC)cc(OC)n3)cc2[nH]c1=O (stereo not drawn) [Compound 43]	158 nM
CCc1cc2ccc(C(C)(C#N)Cc3ccccc3)cc2[nH]c1=O (stereo not drawn) [Compound 44]	39.8 nM
CCc1cc2ccc(C(C)(C#N)Cc3cccc(Br)c3)cc2[nH]c1=O (stereo not drawn) [Compound 49]	31.6 nM
CCOP(=O)(OCC)c1cccc(CC(C)(C#N)c2ccc3cc(CC)c(=O)[nH]c3c2)c1 (stereo not drawn) [Compound 50]	200 nM
CCc1cc2ccc(C(C)(C#N)Cc3cccc(C#N)c3)cc2[nH]c1=O (stereo not drawn) [Compound 51]	39.8 nM
CCc1cc2ccc(C(C)(C#N)CCOc3ccc([N+](=O)[O-])cc3)cc2[nH]c1=O (stereo not drawn) [Compound 54]	158 nM
CCc1cc2ccc(C(C)(C#N)Cc3cccc(CN4CCN(C)CC4)c3)cc2[nH]c1=O (stereo not drawn) [Compound 57]	126 nM

Compound	IC50
CCc1cc2ccc(C(C)(C#N)Cc3cccc(CN4CCOCC4)c3)cc2[nH]c1=O (stereo not drawn) [Compound 58]	316 nM
CCc1cc2ccc(C(C)(C#N)Cc3cccc(CNC)c3)cc2[nH]c1=O (stereo not drawn) [Compound 59]	79.4 nM
CCc1cc2ccc(C(C)(C#N)Cc3cccc(CNCCOC)c3)cc2[nH]c1=O (stereo not drawn) [Compound 60]	63.1 nM
CCc1cc2ccc(C(C)(C#N)Cc3cccc(CNCCN4CCOCC4)c3)cc2[nH]c1=O (stereo not drawn) [Compound 61]	100 nM
CCc1cc2ccc(C(C)(C#N)Cc3cccc(C(=O)NCCOC)c3)cc2[nH]c1=O (stereo not drawn) [Compound 62]	79.4 nM
CCc1cc2ccc(C(C)(C#N)Cc3cccc(C(=O)N(C)C)c3)cc2[nH]c1=O (stereo not drawn) [Compound 63]	200 nM
CCc1cc2ccc(C(C)(C#N)Cc3cccc(N4CCNCC4)c3)cc2[nH]c1=O (stereo not drawn) [Compound 64]	25.1 nM
CCc1cc2ccc(C(C)(C#N)Cc3cccc(N4CCCCC4)c3)cc2[nH]c1=O (stereo not drawn) [Compound 65]	39.8 nM
CCc1cc2ccc(C(C)(C#N)Cc3cccc(N4CCN(C)CC4)c3)cc2[nH]c1=O (stereo not drawn) [Compound 66]	31.6 nM
CCc1cc2ccc(C(C)(C#N)Cc3cccc(OCC4CC4)c3)cc2[nH]c1=O (stereo not drawn) [Compound 67]	126 nM
CCc1cc2ccc(C(C)(C#N)Cc3cccc(OCCCN4CCOCC4)c3)cc2[nH]c1=O (stereo not drawn) [Compound 68]	63.1 nM
CCc1cc2ccc(C(C)(C#N)Cc3cccc(OCCCN4CCN(C)CC4)c3)cc2[nH]c1=O (stereo not drawn) [Compound 69]	63.1 nM
Cc1cc2ccc(C(C)(C#N)Cc3noc(-c4cccc(C(F)(F)F)c4)n3)cc2[nH]c1=O (stereo not drawn) [Compound 70]	200 nM
Cc1cc2ccc(C(C)(C#N)Cc3cc4ccccc4s3)cc2[nH]c1=O (stereo not drawn) [Compound 71]	251 nM
Cc1cc2ccc(C(C)(C#N)Cc3ccc(Cl)s3)cc2[nH]c1=O (stereo not drawn) [Compound 72]	251 nM
Cc1cc2ccc(C(C)(C#N)Cc3ccc(C(F)(F)F)o3)cc2[nH]c1=O (stereo not drawn) [Compound 73]	251 nM
Cc1cc2ccc(C(C)(C#N)Cc3cccc4cccnc34)cc2[nH]c1=O (stereo not drawn) [Compound 74]	126 nM
Cc1cc2ccc(C(C)(C#N)Cc3nc4ccccc4s3)cc2[nH]c1=O (stereo not drawn) [Compound 75]	251 nM
Cc1cc2ccc(C(C)(C#N)Cc3ccccc3)cc2[nH]c1=O (stereo not drawn) [Compound 76]	31.6 nM
CCc1cc2ccc(C(C)(C#N)Cc3cc4c(cc3Cl)OCO4)cc2[nH]c1=O (stereo not drawn) [Compound 91]	63.1 nM
